Results from patent publication US11629146B2, “Substituted [1,2,4]triazolo[4,3-a]pyrazines as modulators of sodium channel activity” (Praxis Precision Medicines, Inc., priority 2016, dated 2023).

Biological target: human NaV1.6 (hNaV1.6) (Homo sapiens (Human), UniProt Q9UQD0)
Experiment: INaL inhibition at hNaV1.6, PatchXpress electrophysiology
Format: cell-based
Settings: 1 μM; HEK-293 cells expressing hNaV1.6; late current evoked by 300 nM ATX-II
Method: Functional characterization of exemplary compounds to modulate INaL expressed by the Nay 1.6 voltage-gated sodium channel was accomplished using the PatchXpress™ high throughput electrophysiology platform (Molecular Devices, Sunnyvale, Calif.). HEK-293 cells expressing recombinant, human NaV1.6 (hNaV1.6) were grown in DMEM/high-glucose Dulbecco's modified, 10% FBS, 2 mM sodium pyruvate, 10 mM HEPES and 400 μg/mL G418. Cells were grown to 50%-80% confluency prior to harvesting. […] The onboard liquid handling facility of the PatchXpress was used for dispensing cells and applying test compounds. Nay late currents were evoked by the application of 300 nM ATX-II. […] INaL amplitude and stability were determined by analyzing the mean current amplitude over the final 20 ms of the test pulse. […] Percent steady-state inhibition of INaL was calculated as: [(INaL_compound)/(INaL_control)]*100, where INaL_compound and INaL_control represent INaL recorded in the presence or absence of compound, respectively.

Chain of human NaV1.6 (hNaV1.6) (Q9UQD0 whole entry): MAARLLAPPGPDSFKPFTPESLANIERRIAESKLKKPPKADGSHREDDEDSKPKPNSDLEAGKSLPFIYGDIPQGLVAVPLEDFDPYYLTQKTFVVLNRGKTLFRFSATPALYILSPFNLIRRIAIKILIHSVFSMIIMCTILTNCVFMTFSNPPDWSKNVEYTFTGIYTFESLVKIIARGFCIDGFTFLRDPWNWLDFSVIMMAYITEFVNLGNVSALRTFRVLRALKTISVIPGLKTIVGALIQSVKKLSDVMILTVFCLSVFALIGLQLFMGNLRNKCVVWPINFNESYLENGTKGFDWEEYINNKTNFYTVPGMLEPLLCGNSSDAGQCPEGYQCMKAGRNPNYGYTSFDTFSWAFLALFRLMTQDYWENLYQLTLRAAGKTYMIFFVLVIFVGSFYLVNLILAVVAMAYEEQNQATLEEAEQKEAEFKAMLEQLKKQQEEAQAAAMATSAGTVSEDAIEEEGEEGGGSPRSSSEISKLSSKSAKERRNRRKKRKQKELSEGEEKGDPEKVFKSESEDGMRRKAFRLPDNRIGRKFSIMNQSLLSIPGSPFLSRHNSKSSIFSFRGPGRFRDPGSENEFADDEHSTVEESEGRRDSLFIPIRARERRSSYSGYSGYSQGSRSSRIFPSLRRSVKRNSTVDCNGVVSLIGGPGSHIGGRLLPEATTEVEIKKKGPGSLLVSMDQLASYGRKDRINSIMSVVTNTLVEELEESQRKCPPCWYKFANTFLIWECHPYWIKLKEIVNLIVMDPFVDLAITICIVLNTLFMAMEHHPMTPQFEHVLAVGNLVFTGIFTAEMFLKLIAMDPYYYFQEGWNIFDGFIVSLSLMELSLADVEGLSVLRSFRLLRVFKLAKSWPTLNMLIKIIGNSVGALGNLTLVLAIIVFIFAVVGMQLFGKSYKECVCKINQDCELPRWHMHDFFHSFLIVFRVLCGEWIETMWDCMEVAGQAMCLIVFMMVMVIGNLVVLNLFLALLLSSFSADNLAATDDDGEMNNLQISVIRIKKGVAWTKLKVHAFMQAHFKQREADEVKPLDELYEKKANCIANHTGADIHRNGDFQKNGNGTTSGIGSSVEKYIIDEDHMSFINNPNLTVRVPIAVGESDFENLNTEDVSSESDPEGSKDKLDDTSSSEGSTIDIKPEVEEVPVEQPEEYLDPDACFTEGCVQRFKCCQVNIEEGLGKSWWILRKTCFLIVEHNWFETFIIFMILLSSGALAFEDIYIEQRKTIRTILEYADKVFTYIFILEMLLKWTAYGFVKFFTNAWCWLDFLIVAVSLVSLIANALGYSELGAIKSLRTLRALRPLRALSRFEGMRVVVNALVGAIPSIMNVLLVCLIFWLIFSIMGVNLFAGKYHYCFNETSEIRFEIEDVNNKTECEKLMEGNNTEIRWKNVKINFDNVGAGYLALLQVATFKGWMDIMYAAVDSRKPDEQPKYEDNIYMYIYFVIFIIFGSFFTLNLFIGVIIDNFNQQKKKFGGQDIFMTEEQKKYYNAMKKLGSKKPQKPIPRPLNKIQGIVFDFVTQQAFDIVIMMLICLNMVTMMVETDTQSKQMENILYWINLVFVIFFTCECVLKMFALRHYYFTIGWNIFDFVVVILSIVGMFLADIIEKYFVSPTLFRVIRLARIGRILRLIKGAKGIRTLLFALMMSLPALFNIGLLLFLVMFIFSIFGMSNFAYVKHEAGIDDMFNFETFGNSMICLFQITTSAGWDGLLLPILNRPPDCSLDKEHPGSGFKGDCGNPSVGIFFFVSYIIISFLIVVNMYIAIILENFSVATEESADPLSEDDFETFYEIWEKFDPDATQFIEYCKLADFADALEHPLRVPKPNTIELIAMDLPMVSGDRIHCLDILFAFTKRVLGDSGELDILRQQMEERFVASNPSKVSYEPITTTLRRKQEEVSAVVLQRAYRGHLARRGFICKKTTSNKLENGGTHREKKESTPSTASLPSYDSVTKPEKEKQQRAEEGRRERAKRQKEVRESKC

Compound | INaL v1.6 (1 μM, % Inhibition)
FC(F)(F)Oc1ccc(-c2ccc3nnc(C4CC4(F)F)n3n2)cc1 (single isomer, unassigned) [Compound 46] | C (inhibition of greater than 70%)
COCc1cc(OC(F)(F)F)ccc1-c1cn2c(C(F)(F)F)nnc2cn1 [Compound 66] | C (inhibition of greater than 70%)
Fc1cc(-c2cn3c(C(F)(F)F)nnc3cn2)cnc1OC1CC(F)(F)C1 [Compound 84] | C (inhibition of greater than 70%)
C[C@@H](Oc1ncc(-c2cn3c(C(F)F)nnc3cn2)cc1F)C(F)(F)F [Compound 134] | C (inhibition of greater than 70%)

Same assay, conditions: HEK293, read-out: INaL v1.6 (1 μM, % Inhibition)

Compound | inhibition at 1 µM [%]
FC(F)(F)Oc1ccc(-c2ccc3nnc(CC4CCCOC4)n3n2)cc1 (centres unmarked) [Compound 38] | 30 to 70
FC(F)(F)Oc1ccc(-c2ccc3nnc(CC4CCOCC4)n3n2)cc1 [Compound 39] | < 30
CC(C)(C#N)c1ccc(-c2cn3c(C(F)F)nnc3cn2)cc1 [Compound 57] | < 30
N#CC1(c2ccc(-c3ccc4nnc(C(F)(F)F)n4n3)cc2)CCC1 [Compound 60] | 30 to 70
Cc1nnc2cnc(-c3ccc(OC(F)(F)F)cc3)cn12 [Compound 95] | < 30
N#CC1(c2ccc(-c3ccc4nnc(C(F)(F)F)n4n3)cc2F)CC1 [Compound 104] | < 30
FC(F)(F)c1nnc2ccc(-c3ccc(C4CC4(F)F)cc3)nn12 (centres unmarked) [Compound 120, 6-[4-(2,2-difluorocyclopropyl)phenyl]-3-(trifluoromethyl)-[1,2,4]triazolo[4,3-b]pyridazine] | > 70
FC(F)(F)c1nnc2ccc(-c3ccc([C@H]4CC4(F)F)cc3)nn12 [Compound 121, 6-[4-[(1R)-2,2-difluorocyclopropyl]phenyl]-3-(trifluoromethyl)-[1,2,4]triazolo[4,3-b]pyridazine] | > 70

Same assay, conditions: HEK293; 1 μM; HEK-293 cells expressing hNaV1.6; late current evoked by 300 nM ATX-II; read-out: INaL v1.6 (1 μM, % Inhibition)

inhibition at 1 µM [%] | Compound
< 30 | FC(F)(F)Oc1ccc(-c2cn3c(C[C@H]4CCCOC4)nnc3cn2)cc1 (single isomer, unassigned) [Compound 154]
< 30 | FC(F)(F)Oc1ccc(-c2cn3c(C[C@@H]4CCCOC4)nnc3cn2)cc1 (single isomer, unassigned) [Compound 155]
30 to 70 | Fc1cc(C(F)(F)F)ccc1-c1cn2c(C(F)(F)F)nnc2cn1 [Compound 76]
> 70 | Fc1cc(-c2cn3c(C(F)(F)F)nnc3cn2)ccc1OC(F)(F)F [Compound 79]
30 to 70 | FC(F)(F)Oc1ccc(-c2cn3c(C4CC4)nnc3cn2)cc1 [Compound 80]
30 to 70 | FC1(F)CC(c2nnc3cnc(-c4ccc(OC(F)(F)F)cc4)cn23)C1 [Compound 82]
30 to 70 | Fc1cc(-c2ccc3nnc(C4CC(F)(F)C4)n3n2)cnc1OCC(F)(F)F [Compound 83]
< 30 | Fc1cc(-c2ccc3nnc(C(F)F)n3n2)cnc1OCC(F)(F)F [Compound 85]
30 to 70 | FC1(F)CC(Oc2ccc(-c3cn4c(C(F)(F)F)nnc4cn3)cn2)C1 [Compound 86]
30 to 70 | Fc1cc(-c2ccc3nnc(C4(F)CC4)n3n2)cnc1OCC(F)(F)F [Compound 88]
> 70 | COc1cc(C(F)(F)F)ccc1-c1ccc2nnc(C(F)(F)F)n2n1 [Compound 89]
> 70 | Fc1cc(-c2ccc3nnc(C(F)(F)F)n3n2)cnc1OC1CC(F)(F)C1 [Compound 93]
30 to 70 | Cc1cc(OC2CC(F)(F)C2)ccc1-c1ccc2nnc(C(F)(F)F)n2n1 [Compound 94]
> 70 | COC(F)(F)c1nnc2cnc(-c3ccc(OC(F)(F)F)cc3)cn12 [Compound 97]
> 70 | Cc1cc(-c2ccc3nnc(C(F)(F)F)n3n2)ccc1C(F)(F)F [Compound 98]
< 30 | Fc1cc(-c2ccc3nnc(C(F)(F)F)n3n2)cnc1C(F)(F)F [Compound 99]
30 to 70 | Fc1cc(-c2ccc3nnc(C(F)(F)F)n3n2)ccc1OC1CC(F)(F)C1 [Compound 100]

inhibition at 1 µM [%] | Compound
30 to 70 | FC(F)OCc1cc(OC(F)(F)F)ccc1-c1ccc2nnc(C(F)(F)F)n2n1 [Compound 101]
< 30 | CC(C)(O)c1ccc(-c2ccc3nnc(C(F)(F)F)n3n2)cc1 [Compound 102]
30 to 70 | Fc1cc(-c2ccc3nnc(C4CC4)n3n2)cnc1OCC(F)(F)F [Compound 103]
> 70 | COC(F)(F)c1nnc2ccc(-c3ccc(C(F)(F)F)cc3C)nn12 [Compound 111]
30 to 70 | O=C(Cc1nnc2cnc(-c3ccc(OC(F)(F)F)cc3)cn12)N1CCCC1 [Compound 114]
30 to 70 | OCc1cc(-c2ccc3nnc(C(F)(F)F)n3n2)ccc1OC(F)(F)F [Compound 115, [2-(trifluoromethoxy)-5-[3-(trifluoromethyl)-[1,2,4]triazolo[4,3-b]pyridazin-6-yl]phenyl]methanol]
> 70 | FC(F)Oc1ccc(-c2ccc3nnc(C(F)(F)F)n3n2)cc1 [Compound 116]
> 70 | FC(F)(F)OCc1ccc(-c2ccc3nnc(C(F)(F)F)n3n2)cc1 [Compound 118]
< 30 | FCCc1nnc2cnc(-c3ccc(OC(F)(F)F)cc3)cn12 [Compound 119]
> 70 | CC(Oc1ncc(-c2ccc3nnc(C(F)(F)F)n3n2)cc1F)C(F)(F)F (centres unmarked) [Compound 128]
< 30 | FC(F)(F)Oc1ccc(-c2cn3c(C[C@H]4CCCCO4)nnc3cn2)cc1 [Compound 129, 3-[[(2R)-tetrahydropyran-2-yl]methyl]-6-[4-(trifluoromethoxy)phenyl]-[1,2,4]triazolo[4,3-a]pyrazine]
30 to 70 | FC(F)(F)Oc1ccc(-c2cn3c(C[C@@H]4CCCCO4)nnc3cn2)cc1 [Compound 130, 3-[[(2S)-tetrahydropyran-2-yl]methyl]-6-[4-(trifluoromethoxy)phenyl]-[1,2,4]triazolo[4,3-a]pyrazine]
> 70 | CC(Oc1ncc(-c2cn3c(C(F)(F)F)nnc3cn2)cc1F)C(F)(F)F (centres unmarked) [Compound 133]
30 to 70 | COCc1cc(OC(F)(F)F)ccc1-c1ccc2nnc(C(F)F)n2n1 [Compound 137]
< 30 | FC(F)Oc1ccc(-c2cn3c(C(F)F)nnc3cn2)cc1 [Compound 138]
< 30 | Cc1cc(-c2ccc(OC(F)(F)F)cc2)nn2c(C(F)(F)F)nnc12 [Compound 139, 8-methyl-6-[4-(trifluoromethoxy)phenyl]-3-(trifluoromethyl)-[1,2,4]triazolo[4,3-b]pyridazine]

More lines, now with the values behind:

Compound | inhibition at 1 µM [%]
N#Cc1cc(C(F)(F)F)ccc1-c1ccc2nnc(C(F)(F)F)n2n1 [Compound 4] | < 30
COc1cc(OC(F)(F)F)ccc1-c1ccc2nnc(C(F)(F)F)n2n1 [Compound 5] | > 70
FC(F)(F)Oc1ccc(-c2ccc3nnc(C(F)(F)F)n3n2)c(C2COC2)c1 [Compound 32] | 30 to 70
COc1cc(OC(F)(F)F)ccc1-c1ccc2nnc(C(F)(F)OC)n2n1 [Compound 33] | > 70
COc1cc(OC(F)(F)F)ccc1-c1ccc2nnc(C(F)(F)OCC3CC3)n2n1 [Compound 34] | > 70
FC(F)(F)Oc1ccc(Cl)c(-c2ccc3nnc(C(F)(F)F)n3n2)c1 [Compound 35] | < 30
Cc1ccc(OC(F)(F)F)cc1-c1ccc2nnc(C(F)(F)F)n2n1 [Compound 36] | < 30
N#Cc1ccc(OC(F)(F)F)cc1-c1ccc2nnc(C(F)(F)F)n2n1 [Compound 40] | < 30
FC(F)c1nnc2cnc(-c3ccc(OC(F)(F)F)cc3)cn12 [Compound 47] | 30 to 70
COc1cc(OC(F)(F)F)ccc1-c1cn2c(C(F)F)nnc2cn1 [Compound 48] | < 30
FC(F)c1nnc2cnc(-c3ccc(OCC(F)(F)F)nc3)cn12 [Compound 50] | 30 to 70
COC(C)(C)c1ccc(-c2cn3c(C(F)F)nnc3cn2)cc1 [Compound 51] | < 30
FC(F)(F)Oc1ccc(-c2cnc3nnc(C(F)(F)F)n3c2)cc1 [Compound 54] | < 30
FC(F)(F)Oc1ccc(-c2cnc3nncn3c2)cc1 [Compound 55] | < 30
FC(F)(F)Oc1ccc(-c2cn3c(C(F)(F)F)nnc3cn2)cc1 [Compound 56] | > 70
FC(F)(F)COc1ccc(-c2ccc3nnc(C(F)(F)F)n3n2)nc1 [Compound 58] | 30 to 70
FC(F)(F)c1ccc(-c2cn3c(C(F)(F)F)nnc3cn2)cc1 [Compound 62] | 30 to 70
COc1cc(C2(C#N)CC2)ccc1-c1cn2c(C(F)(F)F)nnc2cn1 [Compound 64] | < 30
N#CC1(c2ccc(-c3cn4c(C(F)(F)F)nnc4cn3)cc2)CC1 [Compound 67] | < 30
COc1cc(OC(F)(F)F)ccc1-c1cn2c(C(F)(F)F)nnc2cn1 [Compound 70] | 30 to 70
N#CC1(c2ccc(-c3cn4c(C(F)(F)F)nnc4cn3)cc2)CCC1 [Compound 71] | 30 to 70
CCOc1ccc(-c2cn3c(C(F)(F)F)nnc3cn2)cc1 [Compound 74] | < 30
CC(C)c1nnc2cnc(-c3ccc(OC(F)(F)F)cc3)cn12 [Compound 75] | < 30
